Values after ≈ are worked out from the molar mass of the structure shown. Active and inactive are the calls of the source.

Assay [1] is filed under the species Mus musculus. Put plainly: Inhibitory activity against Staphylococcus aureus in mice. It is filed as functional.
The species entered for assay [2] is Mus musculus. Put plainly: Inhibitory activity against Streptococcus pyogenes in mice. The class given is functional.
The species entered for assay [3] is Mus musculus. Put plainly: Inhibitory activity against Streptococcus pneumoniae in mice. The class given is functional.
In assay [4] the test system is Staphylococcus aureus. Description: Inhibitory activity against strain of Staphylococcus aureus. It is filed as functional.
The next assay concerns Bacteroides fragilis. Put plainly: Inhibitory activity against strain of Bacteroides fragilis. The class given is functional.
Assay [5] relates to Enterococcus faecium. Description: Inhibitory activity against vancomycin-resistant Enterococcus faecium. It is filed as functional.
A further assay deals with Pseudomonas aeruginosa. Put plainly: Inhibitory activity against ciprofloxacin-resistant Pseudomonas aeruginosa. It is filed as functional.
Assay [6] has as its system Staphylococcus aureus. Put plainly: Inhibitory activity against ciprofloxacin-resistant Staphylococcus aureus. It is filed as functional.
The subject of assay [7] is Streptococcus pneumoniae. Description: Inhibitory activity against penicillin-resistant Streptococcus pneumoniae. The class given is functional.
Assay [8] has as its system Enterococcus faecalis. Put plainly: Inhibitory activity against strain of Enterococcus faecalis resistant to both vancomycin and teicoplanin.
The subject of assay [9] is Enterococcus faecium. Put plainly: Inhibitory activity against strain of Enterococcus faecium resistant to both vancomycin and teicoplanin. The class given is functional.
Assay [10] relates to Enterococcus faecium. Description: Inhibitory activity against VanA strain of E. faecium; Range is 64-2108 ug/mL. The class given is functional.
Assay [11] concerns Streptococcus pneumoniae. Put plainly: Inhibitory activity against Streptococcus pneumoniae. It is filed as functional.
In another assay the test system is Streptococcus pyogenes. Description: Inhibitory activity against Streptococcus pyogenes. It is filed as functional.
Assay [12] in a line: Inhibitory activity against VanB enterococci; Range is 0.016-1 ug/mL. The class given is functional.
The subject of assay [13] is Enterococcus faecalis. Put plainly: Inhibitory activity against VanA strain of E. faecalis; Range is 0.03-2 ug/mL.
For assay [14], the system named is Enterococcus faecium. Put plainly: Inhibitory activity against VanA strain of E. faecium; Range is 0.03-2 ug/mL. The class given is functional.
Assay [15] relates to Staphylococcus aureus. Description: Inhibitory activity against MRSA. It is filed as functional.
The subject of assay [16] is Enterococcus faecalis. Description: Inhibitory activity against strain of Enterococcus faecalis. The class given is functional.
Assay [17] has as its system Staphylococcus sp. Description: Inhibitory activity against Staphylococci. It is filed as functional.
The subject of assay [18] is Enterococcus faecium. Description: Inhibitory activity against strain of Enterococcus faecium. The class given is functional.
Assay [19] concerns Streptococcus sp. Description: Inhibitory activity against all group A and B Streptococci. It is filed as functional.
The subject of assay [20] is Enterococcus faecalis. Description: Inhibitory activity against strain of E. faecalis; Range is 0.25-2 ug/mL. The class given is functional.
Assay [21] deals with Streptococcus pneumoniae. Description: Inhibitory activity against S. pneumoniae; Range is 0.12-0.25 ug/mL. The class given is functional.
The test system of assay [22] is Staphylococcus sp. Description: Inhibitory activity against ciprofloxacin resistant staphylococci; Range is 2-8 ug/mL. The class given is functional.
Assay [23] has as its system Staphylococcus epidermidis. Put plainly: Inhibitory activity against Staphylococcus epidermidis. The class given is functional.
Assay [24] deals with Staphylococcus aureus. Description: Inhibitory activity against Staphylococcus aureus. The class given is functional.
Assay [25] concerns Enterococcus faecalis. Description: Inhibitory activity against VanA strain of E. faecalis; Range is 2-64 ug/mL. It is filed as functional.
Assay [26] deals with Enterococcus faecium. Description: Inhibitory activity against VanA strain of E. faecium; Range is 2-64 ug/mL. The class given is functional.
The subject of another assay is Enterococcus. Put plainly: Inhibitory activity against vancomycin-resistant enterococci. The class given is functional.
A further assay has as its system Bacteria. Description: Inhibitory activity against vancomycin-sensitive Gram-positive bacteria. It is filed as functional.
Another assay deals with Haemophilus influenzae. Description: Antibacterial activity against Haemophilus influenzae; Active. It is filed as functional, organism-based.
Assay [27] is described as follows: Antibacterial activity against Legionella; More active. The class given is functional.
Another assay concerns Chlamydia. Put plainly: Antibacterial activity against Chlamydia; More active. The class given is functional, organism-based.
The test system of assay [28] is Streptococcus sp. Description: Antibacterial activity against Streptococci; Retention of potent activity. The class given is functional, organism-based.
For another assay, the system named is Pasteurella multocida. Put plainly: Antibacterial activity against Pasteurella multocida; More active. The class given is functional, organism-based.
A further assay relates to Helicobacter pylori. Put plainly: Antibacterial activity against Helicobacter pylori; Exhibits good activity. It is filed as functional, organism-based.
Assay [29] is described as follows: Antibacterial activity against […] species.; More active. It is filed as functional.
Assay [30] can be described thus: Antibacterial activity against penicillin resistant pneumococci was determined; Active. It is filed as functional.
For assay [31], the system named is Staphylococcus aureus. Put plainly: Antibacterial activity against MRSA was determined; Active. The class given is functional, organism-based.
The next assay deals with Citrobacter freundii. Description: In vitro inhibitory activity against Citrobacter freundii. It is filed as functional.
In assay [32] the test system is Enterococcus faecalis. Put plainly: In vitro inhibitory activity against Enterococcus faecalis. It is filed as functional.
The subject of a further assay is Serratia marcescens. Put plainly: In vitro inhibitory activity against Serratia marcescens. It is filed as functional.
Another assay deals with Enterobacter. Description: In vitro inhibitory activity against Enterobacteriaceae; Range is 0.016-0.5 ug/mL. It is filed as functional.
The next assay deals with Providencia sp. Description: In vitro inhibitory activity against Providencia species. It is filed as functional.
Assay [33] deals with Streptococcus sp. Put plainly: In vitro inhibitory activity against Streptococci; Range is 0.06-0.25 ug/mL. It is filed as functional.
The test system of assay [34] is Staphylococcus aureus. Put plainly: In vitro inhibitory activity against ciprofloxacin resistant MRSA. It is filed as functional.

With `CNC(=O)C[C@@H]1NC(=O)c2csc(n2)-c2ccc(-c3nc(C4=N[C@H](C(=O)N5CCC[C@H]5C(N)=O)CO4)cs3)nc2-c2csc(n2)-c2csc(n2)[C@H]([C@@H](O)c2ccccc2)NC(=O)CNC(=O)c2nc(sc2COC)[C@H](C(C)C)NC(=O)c2nc1sc2C`, the figures for the ED50 in the assay listed under Mus musculus [1], in the assay listed under Mus musculus [2] and in the assay filed under Mus musculus [3] were 1.8 mg/kg, 9.1 mg/kg and 15.2 mg/kg, respectively.

For `Cc1c(N2CC[C@H](N)C2)c(F)cn2c(=O)c(C(=O)O)cc(C3CC3)c12` [ABT-719], the MIC90 against Staphylococcus aureus [4] was 0.015 µg/mL (≈ 0.0434 µM); in the assay on Bacteroides fragilis it was 0.06 µg/mL (≈ 0.174 µM); in the assay with Enterococcus faecium [5], 0.5 µg/mL (≈ 1.45 µM); against Pseudomonas aeruginosa, 2 µg/mL (≈ 5.79 µM); with Staphylococcus aureus [6], 0.25 µg/mL (≈ 0.724 µM); against Streptococcus pneumoniae [7], 0.03 µg/mL (≈ 0.0869 µM).

Turning to `CN[C@H](CC(C)C)C(=O)N[C@H]1C(=O)N[C@@H](CC(N)=O)C(=O)N[C@H]2C(=O)N[C@H]3C(=O)N[C@H](C(=O)N[C@H](C(=O)O)c4cc(O)cc(O)c4-c4cc3ccc4O)[C@H](O)c3ccc(c(Cl)c3)Oc3cc2cc(c3O[C@@H]2O[C@H](CO)[C@@H](O)[C@H](O)[C@H]2O[C@H]2C[C@](C)(N)[C@H](O)[C@H](C)O2)Oc2ccc(cc2Cl)[C@H]1O` [VANCOMYCIN], the MIC in the assay with Enterococcus faecalis [8] was at least 128 µg/mL; against Enterococcus faecium [9], at least 128 µg/mL; in the assay on Enterococcus faecium [10], 64 µg/mL (≈ 44.2 µM).

`CCCCCOc1ccc(CN[C@@]2(C)C[C@@H](O[C@H]3[C@H](Oc4c5cc6cc4Oc4ccc(cc4Cl)[C@@H](C[C@H]4C[C@](C)(N)[C@@H](O)[C@H](C)O4)[C@]4(C)NC(=O)[C@H](NC(=O)[C@@H]6NC(=O)[C@H](CC(N)=O)NC(=O)[C@H](NC(=O)[C@@H](CC(C)C)NC)[C@H](O)c6ccc(c(Cl)c6)O5)c5ccc(O)c(c5)-c5c(O)cc(O)cc5[C@@H](C(=O)O)NC4=O)O[C@H](CO)[C@@H](O)[C@@H]3O)O[C@@H](C)[C@@H]2O)cc1`: the MIC against Streptococcus pneumoniae [11] was under 0.008 µg/mL; against Streptococcus pyogenes it was under 0.06 µg/mL; in assay [12], 0.016 µg/mL (≈ 0.00898 µM); with Enterococcus faecalis [13] it was 0.03 µg/mL (≈ 0.0168 µM); against Enterococcus faecium [14], 0.03 µg/mL (≈ 0.0168 µM); against Staphylococcus aureus [15], at most 0.5 µg/mL.

In the case of `N[C@@H]1CN(c2c(F)cc3c(=O)c(C(=O)O)cn(C4C[C@@H]4F)c3c2Cl)CC12CC2` (single isomer, unassigned) [SITAFLOXACIN ANHYDROUS], the MIC90 with Enterococcus faecalis [16] was 1 µg/mL (≈ 2.44 µM); against Staphylococcus sp. [17] it was at most 0.06 µg/mL; with Enterococcus faecium [18], 0.5 µg/mL (≈ 1.22 µM); against Staphylococcus aureus [15], 1 µg/mL (≈ 2.44 µM); against Streptococcus sp. [19], at most 0.125 µg/mL.

`N[C@@H]1[C@H]2CN(c3nc4c(cc3F)c(=O)c(C(=O)O)cn4-c3ccc(F)cc3F)C[C@@H]12` [TROVAFLOXACIN]: the values for the MIC in the assay with Enterococcus faecalis [20], with Streptococcus pneumoniae [21] and against Staphylococcus sp. [22] were 0.25 µg/mL (≈ 0.6 µM), 0.12 µg/mL (≈ 0.288 µM) and 2 µg/mL (≈ 4.8 µM), respectively.

In the case of `CCN(CC)CCS(=O)(=O)[C@@H]1CCN2C(=O)c3coc(n3)CC(=O)C[C@H](O)/C=C(C)/C=C/CNC(=O)/C=C/[C@@H](C)[C@@H](C(C)C)OC(=O)[C@@H]12` [DALFOPRISTIN], the MIC90 in assay [23] is 0.5 µg/mL (≈ 0.724 µM); against Staphylococcus aureus [24] it was 1 µg/mL (≈ 1.45 µM).

On to `CN[C@H](CC(C)C)C(=O)N[C@H]1C(=O)N[C@@H](CC(N)=O)C(=O)N[C@H]2C(=O)N[C@H]3C(=O)N[C@](C)(C(=O)N[C@H](C(=O)O)c4cc(O)cc(O)c4-c4cc3ccc4O)[C@H](C[C@H]3C[C@](C)(N)[C@@H](O)[C@H](C)O3)c3ccc(c(Cl)c3)Oc3cc2cc(c3O[C@@H]2O[C@H](CO)[C@@H](O)[C@H](O)[C@H]2O[C@@H]2C[C@](C)(N)[C@@H](O)[C@H](C)O2)Oc2ccc(cc2Cl)[C@H]1O` [VANCOMYCIN DERIVATIVE (EPIVANCOMYCIN LINKED WITH ADDITIONAL AMINO SUGAR)], for which the MIC amounted to 2 µg/mL (≈ 1.25 µM) against Enterococcus faecalis [25], 2 µg/mL (≈ 1.25 µM) against Enterococcus faecium [26], 500 µg/mL (≈ 312 µM) with Enterococcus and 32 µg/mL (≈ 19.9 µM) in the assay on Bacteria.

In the case of `CC[C@H]1OC(=O)[C@H](C)[C@@H](OC2CC(C)(O)C(O)C(C)O2)[C@H](C)[C@@H](OC2OC(C)CC(N(C)C)C2O)[C@](C)(OC)C[C@@H](C)C(=O)[C@H](C)[C@@H](O)[C@]1(C)O` (stereo partly drawn), the outcome (with Haemophilus influenzae; in assay [27]; in the assay on Chlamydia; in the assay on Pasteurella multocida; in assay [29]) was Active. Besides, the Activity result in the assay with Streptococcus sp. [28] and with Helicobacter pylori was “Exihibits good activity” in each case.

For `C[C@@H](O)[C@H]1C(=O)N2C(C(=O)[O-])=C(c3ccc4c(c3)-c3ccc(C[n+]5ccn(C)c5)cc3C4=O)C[C@H]12`, the result (in [30]; in the assay with Staphylococcus aureus [31]) was Active.

On to `NC1CCN(c2c(F)cc3c(=O)c(C(=O)O)cn(C4CC4)c3c2Cl)C1` (stereo not drawn) [CLINAFLOXACIN], for which the MIC90 against Citrobacter freundii is 0.5 µg/mL (≈ 1.37 µM); in the assay on Enterococcus faecalis [32] it was 0.5 µg/mL (≈ 1.37 µM); in the assay with Serratia marcescens it was 0.5 µg/mL (≈ 1.37 µM); against Enterobacter, 0.016 µg/mL (≈ 0.0437 µM); in the assay with Providencia sp. it was 0.5 µg/mL (≈ 1.37 µM); against Streptococcus sp. [33], 0.06 µg/mL (≈ 0.164 µM). The MIC90 with Staphylococcus aureus [34] amounted to 1 µg/mL (≈ 2.73 µM).

For orientation: ED50 means the dose that gives a 50% effect, or the effect in half of the subjects. Lower therefore signals an effect at a small dose. A word on the MIC90: it is an inhibitory concentration at the 90% level, which refers to growth in some studies and to a panel of isolates in others. Read a low MIC90 as greater potency. In general, MIC refers to the smallest concentration in the dilution series that meets the test's criterion for growth inhibition. High values mean a need for much substance, low ones inhibition by little substance.

The values are drawn from ChEMBL document CHEMBL1129675, “New directions in antibacterial research” (1996).
